Measurements reported in ChEMBL document CHEMBL1148079, “Zarzissine, a new cytotoxic guanidine alkaloid from the Mediterranean sponge Anchinoe paupertas” (J Nat Prod, 1994).
≈ marks a conversion by molar mass, not a printed value.

Legend:
[1] = Cytotoxicity against human NSCLC-N6 cells after 72 hrs by MTT assay; format: functional, cell-based; conditions: NSCLC-N6, 72 h
Candida tropicalis = test: Antimicrobial activity against Candida tropicalis at 100 ug after 18 hrs by paper disk agar diffusion method; format: functional; conditions: read-out: IZ
Staphylococcus aureus = test: Antimicrobial activity against Staphylococcus aureus at 100 ug after 18 hrs by paper disk agar diffusion method; format: functional; conditions: read-out: IZ
Candida albicans = test: Antimicrobial activity against Candida albicans at 100 ug after 18 hrs by paper disk agar diffusion method; format: functional; conditions: read-out: IZ
P388 = test: Cytotoxicity against mouse P388 cells after 72 hrs by MTT assay; format: functional, cell-based; conditions: P388, 72 h
KB = test: Cytotoxicity against human KB cells after 72 hrs by MTT assay; format: functional, cell-based

Row | SMILES | IC50 [1] [µg/mL] | zone of inhibition at 100 µg/disc (Candida tropicalis) [mm] | zone of inhibition at 100 µg/disc (Staphylococcus aureus) [mm] | zone of inhibition at 100 µg/disc (Candida albicans) [mm] | IC50 (P388) [µg/mL] | IC50 (KB) [µg/mL]
1 | Nc1nc2cnncc2[nH]1 | 10 (≈ 74 µM) | 11 | 12 | 10 | 12 (≈ 88.8 µM) | 5 (≈ 37 µM)
2 | O=Cc1ccc(O)cc1 [4-HYDROXYBENZALDEHYDE] | – | 7 | 8 | 7 | – | –
